From a melting point compilation (Tetko et al.; mined from patent text by program, amines drawn as free bases though some values may be those of a salt)

SMILES | melting point
N#Cc1ccc2[nH]cc(CCCCN3CCN(c4ccc5oc(C(=O)NO)cc5c4)CC3)c2c1 | 198 to 199 °C
COc1ccc(CN2CCc3cc(O)c(OC)cc3C2)cc1 | 162 to 163 °C
O=C(O)c1ccc(-c2ccc(I)c(O)c2)cc1 | 174 °C
Clc1ccc(-c2cc(C3CCN(Cc4ccccc4)CC3)n[nH]2)cc1 | 164 to 167 °C
CN(CCCc1ccc(F)cc1)[C@H]1CC[C@H](c2ccc3[nH]c(=O)oc3c2)CC1 | 62 to 65 °C
O=C(c1ccc(F)cc1)N1CCC[C@H](c2noc(-c3ccc(F)cn3)n2)C1 | 108 to 110 °C
c1cc(-c2c(-c3ccsc3)nc3ccc(N4CC5CNCC5C4)nn23)ccn1 (configuration not stated) | 196 to 198 °C
COc1ccc(CCN(C)C(=O)/C=C/c2cccnc2)cc1OC | 84 to 86 °C
C=CS(=O)(=O)CCC(F)(F)C(F)(F)C(F)(F)C(F)(F)C(F)(F)C(F)(F)C(F)(F)C(F)(F)F | 96 to 97 °C
CC(C)OC(=O)CCC1CCCCC1(c1ccc(O)c(C(C)(C)C)c1)c1ccc(O)c(C(C)(C)C)c1 (configuration not stated) | 172 °C
CCCCCCCCCCCCCCCCCC(O)c1cc(C(=O)OCC)ccc1O (configuration not stated) | 75 °C
COc1ccc(N(C(=O)CNC(=O)Nc2cccc(C)c2)c2ccccc2)cc1 | 182 °C
CC(C)(C)NCC(O)COc1ccc(C(N)=O)cc1I (configuration not stated) | 111 to 114 °C
COC(=O)c1ccc(OCC(C)=O)c(C(=O)OC)c1 | 115 to 116 °C
COC(=O)C1=C(C)NC(C)=C(C(=O)OCCOc2ccc(CCOC(C)=O)cc2)C1c1cccc([N+](=O)[O-])c1 (configuration not stated) | 110 °C
CCCc1nn(-c2ccc(C(F)(F)F)cn2)cc1CCCOc1cc(CCC(=O)O)n(-c2ccccc2)n1 | 149 to 150 °C
Cc1cccc(CN2CCc3ccc(C(=O)CCC(=O)N4CCC(c5ccc(Cl)cc5)CC4)cc3CC2)c1 | 127 to 128 °C
COc1ccc(S(=O)(=O)N(C)C)c([N+](=O)[O-])c1 | 90 to 92 °C
c1ccc(-c2nccn3cnnc23)cc1 | 238 to 239 °C
O=C(Nc1ccc(F)cc1F)c1cccc(Oc2cccc(C(F)(F)F)c2)n1 | 110 to 112 °C

SMILES | melting point
COC(C)(C)[C@H]1CCCN1NC(=O)Nc1cccc2c1C(=O)c1c-2n[nH]c1-c1ccc(N2CCNCC2)cc1 | 218 °C
CCOC(=O)c1c(C(C)C)nc2c(c1-c1ccc(F)cc1)CCCC2(C)C | 124 to 126 °C
COc1cc(NC(=O)c2cc3cc(F)ccc3n2Cc2cccc(F)c2)cnc1N1CCCC1 | 172 to 174 °C
Nc1cc(Cl)c(S)cc1S(N)(=O)=O | 192 to 195 °C
O=C(c1ccccc1)n1c2c(c3ccccc31)CC(CO)CC2 (configuration not stated) | 105 to 107 °C
CCc1c(-c2ccc(O)cc2)c2cc(C(C)=O)c3ccc(O)c1n32 | 167 to 173 °C
O=[N+]([O-])C=C1CN=C(c2ccccc2)c2sccc2N1 | 160 to 163 °C
O=C(O)c1ccc(C#CC2(O)CN3CCC2CC3)cc1 (configuration not stated) | 288 to 290 °C
S=C(NCn1nnc2ccccc21)NCn1nnc2ccccc21 | 205 to 206 °C
CCOC(=O)N(C(=O)N1CC(c2ccc(Cl)cn2)C(c2ccc(F)cc2)=N1)c1ccc(OC(F)(F)F)cc1 (configuration not stated) | 160 to 161 °C
CCCC(=O)C(Cc1ccc(-c2ccccc2-c2nnn[nH]2)cc1)C(=O)OCC (configuration not stated) | 65 °C
CCCN(c1cccc(-c2ccnc3c([N+](=O)[O-])cnn23)c1)S(C)(=O)=O | 165 to 167 °C
COc1c(C2CCN(CCCCNC(=O)c3ccc(-c4ccc(NS(C)(=O)=O)cc4)cc3)CC2)ccc2c1CCCC2 | 200 to 202 °C
CC(=NNC(=N)N)c1sc(-c2ccc(-c3ccccc3)cc2)nc1C | 278 to 280 °C
O=c1ncc(Cl)cn1CCCl | 167 to 168 °C
Cc1oc(-c2ccccc2)nc1COc1ccc(COc2nn(C)cc2CC(=O)O)cc1 | 133 to 134 °C
CCCCCCCCCC(C)CNc1cccc(-c2ccnc3c(C(=O)c4cccs4)cnn23)c1 (configuration not stated) | 108 to 110 °C
COc1nccnc1OCC(O)CN1CCC(N2CCN(c3ccccc3)C2=O)CC1 (configuration not stated) | 128 to 129 °C
ClCc1ccc(-c2ccc(CCl)cc2)cc1 | 137 to 138 °C
Cc1oc(-c2ccccc2)nc1CCOc1ccc(CC#N)cc1 | 109 to 110 °C

SMILES | melting point
CC(C)NC(=O)c1cnc(N2CCC(n3c(=O)oc4ccccc43)CC2)c(Cl)c1 | 162 to 168 °C
COc1ccc(C2Sc3c(ccc4ccccc34)N(CCN(C)C)C(=O)C2OC)cc1 (configuration not stated) | 118 to 120 °C
O=[N+]([O-])c1ccc2[nH]c(-c3ccccc3)cc2c1 | 199 to 200 °C
CCCC(=O)/C=C/c1cn(-c2ccccc2)nc1OCc1ccc(OCc2nc(-c3ccco3)oc2C)c(OC)c1 | 167 to 168 °C
CC(=C(C#N)C(=O)c1ccc(F)cc1)N(C)C | 65 to 67 °C
CCOc1ccc(NCc2ccc(N(C)C)cc2)cc1 | 98 to 99 °C
COc1c(C)c2c(c(O)c1CC=C(C)CC(C)C(=O)O)C(=O)OC2 (configuration not stated) | 122 to 123 °C
CCC(C)(COc1nn2ncnc2cc1C)CS(N)(=O)=O (configuration not stated) | 189 to 190 °C
COc1cc(Nc2c(C#N)cnc3cc(C#CCCO)c(OC)cc23)c(Cl)cc1Cl | 230 to 232 °C
CC[Si](C)(C)CCCCCCCCC1=C(O)C(=O)c2ccccc2C1=O | 39 to 41 °C
c1csc(-c2ccc(C34CCN(CC3)C4)cn2)n1 | 127 to 129 °C
CCCCc1ccc(-n2c(-c3ccc(SC)cc3)nc(SC)c(C#N)c2=O)cc1 | 138 to 141 °C
CCN(CC)c1nc(C)nc2scnc12 | 41.6 to 43 °C
CNc1nc(SC)ncc1C=O | 98 to 100 °C
CCc1nc2c(cnn2CC)c(NC2CCOCC2)c1CNC(=O)c1cccc(C(=O)NCc2ccc(Cl)c(-c3cccc(CN4CCNCC4)c3)c2)c1 | 127 to 130 °C
Cc1c(C)n(CC=Cc2ccccc2)c2c(OCc3ccc(F)cc3)nncc12 | 124 to 126 °C
OCc1ccc(-c2ccc(-c3cn([C@H]4CN5CCC4CC5)nn3)cc2)s1 | 234 °C
Cc1nc(-n2ccn(CCc3ccc(F)cc3)c2=O)sc1C(=O)NCc1cccnc1 | 160 to 162 °C
CC(C)(Nc1ccccc1N)C(=O)O | 130 to 132 °C

Further lines, results first:

melting point | SMILES
154 to 156 °C | CC1=CC(OC(=O)c2ccc(N)cc2N)C(O)C(C)(C)CC1=O (configuration not stated)
214 to 216 °C | CC1(C)N(CC(N)=O)C(=O)CN1C(=O)CCl
102 to 103 °C | CC(=O)Oc1c(C(C)(C)C)cc(N(C)c2ccn(-c3ccccc3)n2)cc1C(C)(C)C
141 to 146 °C | COCC(=O)C(=NNc1ccc(I)cc1F)C(=O)OC
140 to 141 °C | CCCCOCCOc1ccc(-c2ccc(N3CCC(C(=O)OC)C3)c(C=C(C)C(=O)O)c2)cc1 (configuration not stated)
103 to 105 °C | CCCc1cc(Cn2c(=O)ccc3c(CC)nc(CC)cc32)ccc1O[Si](C)(C)C(C)(C)C
168 to 169 °C | CC(C)(C)OC(=O)N1CCC(NC(=O)c2ccc(Cn3cccn3)cc2)CC1
264 °C | NS(=O)(=O)c1cnc(-c2cn(-c3nc(-c4ccc(C(F)(F)F)cc4)cc(C(F)(F)F)n3)cn2)s1
111 to 124 °C | CN(C)N=C(c1ccccc1)c1cc(C(C)(C)C)c(O)c(C(C)(C)C)c1
189 to 191 °C | S=C(NCc1cccc(Cl)c1)N1CCc2c([nH]c3ccccc23)C1c1ccc2c(c1)OCO2 (configuration not stated)
181 to 182 °C | O=C(O)CC[C@H](NC(=O)N1CCc2cc(S(=O)(=O)N3CCN(c4cccc(Cl)c4)CC3)ccc21)C(=O)O
86 to 88 °C | CC(=O)c1nn(C)c2ccccc12
> 250 °C | C/C(=C\c1ccc(C(=O)Nc2nnn[nH]2)cc1)c1ccc2c(c1)C(C)(C)CCO2
131 to 135 °C | Cc1c(Cl)ccc(C(=O)c2cnn(C)c2O)c1Cl
92 to 93 °C | C=C1N(CCCC)C(=O)OC12CCN(CCC=C(c1ccc(F)cc1)c1ccc(F)cc1)CC2
100 to 102 °C | Cc1ccc(-c2ccc(CBr)cc2)cc1
73.7 to 76.3 °C | COCc1cc(C)nc2c(OCc3ccccc3)cccc12
149 to 151 °C | CCOC(=O)C(=Cc1cccn2cc(Br)nc12)N=[N+]=[N-]
143 to 146 °C | CCCNC(=O)C1(CC=Cc2ccc([N+](=O)[O-])cc2)c2ccccc2-c2ccccc21

melting point | SMILES
128 °C | COC(=O)Cn1c(C)cc(CC2CCCCC2)c([N+](=O)[O-])c1=O
123 to 125 °C | FC(F)(F)c1ccc(-c2cc(C(F)(F)F)c3ncc(I)n3n2)cc1
122 to 125 °C | O=Cc1cccn1-c1ncccc1[N+](=O)[O-]
188 to 192 °C | Nc1nc2c(ncn2OC(CO)CCOCP(=O)(O)O)c(=O)[nH]1 (configuration not stated)
216 to 218 °C | CC(C)Oc1ccc(C(=O)c2[nH]c3cc(Cl)ccc3c2CC(=O)O)cc1
114 to 115 °C | CCOC(=O)Nc1c(F)cc(Cl)c2c1OC(C)(C)C2
187 °C | Oc1nc2ccc3sccc3c2nc1O
96 to 100 °C | COc1ccc(CN(C)CCCOc2ccc(S(=O)(=O)c3c(C(C)C)cn4ccccc34)cc2)cc1OC
305 °C | CCN1CCN(Cc2ccc(-c3cc4c(NCc5ccc(OC)nc5)ncnc4[nH]3)cc2)CC1
146 to 148 °C | Nc1nc2ccccc2c2c1ncn2CCOCC#Cc1ccc(Oc2ccccc2)cc1
197 to 198 °C | O=C(CC1CCN(Cc2ccccc2)CC1)c1ccc(O)cc1
122 °C | CC(=O)OC1CSC(Oc2ccc(-c3cccnc3)cc2F)C(OC(C)=O)C1OC(C)=O (configuration not stated)
157 to 158 °C | Cc1nc(N2CCN(CC3CC3)C2=O)sc1C(=O)NCc1cccnc1
175 to 178 °C | O=S(=O)(Nc1ccc(Oc2ccc3cccnc3c2)cc1)c1ccc(F)cc1
207 to 209 °C | CCc1c2c(nn1-c1ccccc1)c(Cl)nc1ccccc12
125 to 126 °C | COc1ccc(C(=O)CCC(=O)O)c2c1OC(C)(C)C2
104 to 105 °C | CC(C)CCn1c(=O)c(=NNc2ccccc2)c(=O)n(-c2ccccc2F)c2ccccc21
> 160 °C | CCCc1nc(C(O)C(C)(C)C)c(C(N)=O)n1Cc1ccc(-c2ccccc2C(=O)O)cc1 (configuration not stated)
29 to 31 °C | CC(C)(C)Oc1ccc(CCC(=O)O)cc1
